Laboratory results: patent publication US10722444B2, “Stable hydrogel compositions including additives” (Allergan Industrie, SAS, priority 2014, dated 2020)

Legend:
[1] = Autoclaving stability of HA-based gel with additive (pH, extrusion force, rheology, appearance); type: physicochemical; conditions: for ΔpH / ΔTan δ (1 Hz): gel with additive minus gel without
Experimental: Stability of a hydrogel composition disclosed herein can be determined by subjecting a hydrogel composition to a heat treatment, such as, e.g., steam sterilization at normal pressure or under pressure (e.g., autoclaving). Preferably the heat treatment is carried out at a temperature of at least about 100° C. for between about one minute and about 15 minutes. Substantial stability of a hydrogel composition disclosed herein can be evaluated 1) by determining the change in the extrusion force (ΔF) of a hydrogel composition disclosed herein after sterilization, where the change in extrusion force less 2N is indicative of a substantially stable hydrogel composition as measured by (the extrusion force of a hydrogel composition with the specified additives) minus (the extrusion force of the a hydrogel composition without the added additives); and/or 2) by determining the change in rheological properties of a hydrogel composition disclosed herein after sterilization, where the change in tan δ 1 Hz of less than 0.1 is indicative of a substantially stable hydrogel composition as measured by Δ Tan δ 1 Hz=(tan δ 1 Hz of gel formulation with additives) minus (tan δ 1 Hz of gel formulation without additives). As such, a substantially stable hydrogel composition disclosed herein retains one or more of the following characteristics after sterilization: homogeneousness, extrusion force, cohesiveness, hyaluronan concentration, agent(s) concentration, osmolarity, pH, or other rheological characteristics such as tan δ.
(§1) Reminder for stability assessment with extrusion force: ΔF (F gel with additive −F gel without additive)<2N
Reminder for stability assessment with rheology: ΔTan δ (Tan δ 1 Hz gel with additive −Tan δ 1 Hz gel without additive)<0.1
Caffeic acid, at a concentration of 0.6%,(w/w), was incorporated into a HA-based gel matrix at 24 mg/g containing 5% of uncrosslinked HA. The gel formulated was autoclaved.
Inoveol® CAFA (supplied by Libragen), (INCI name: Aqua (and) Caffeyl Glucoside), a derivative of caffeic acid, at a concentration of 0.5% (w/w) of commercial solution, was incorporated into a HA-based gel matrix containing a viscoelastic portion. The gel formulated was autoclaved.
The gel formulated was autoclaved.

[2] = Long term stability / accelerated aging at 45° C. of HA-based gel with additive; type: physicochemical; conditions: for ΔpH / ΔTan δ (1 Hz): 0.6% (w/w) caffeic acid gel of Example 1 vs HA-based gel matrix without additives
Experimental: Long term stability of a hydrogel composition disclosed herein can be determined by subjecting a hydrogel composition to a heat treatment, such as, e.g., storage in an about 45° C. environment for about 60 days. Long term stability of a hydrogel composition disclosed herein can be evaluated 1) by assessing the clarity and color of a hydrogel composition after the 45° C. heat treatment, with a clear and uncolored hydrogel composition being indicative of a substantially stable hydrogel composition; 2) by determining the change in the extrusion force (ΔF) of a hydrogel composition disclosed herein after the 45° C. heat treatment, where the change in extrusion force less 2N is indicative of a substantially stable hydrogel composition as measured by (the extrusion force of a hydrogel composition with the specified additives before and after the 45° C. heat treatment) minus (the extrusion force of the a hydrogel composition without the specified additives before and after the 45° C. heat treatment); and 3) by determining the change in rheological properties of a hydrogel composition disclosed herein after sterilization, where the change in tan δ 1 Hz of less than 0.1 is indicative of a substantially stable hydrogel composition as measured by Δ Tan δ 1 Hz=(tan δ 1 Hz of gel formulation with the specified additives before and after the 45° C. heat treatment) minus (tan δ 1 Hz of gel formulation without the specified additives before and after the 45° C. heat treatment). As such, a long term stability of a hydrogel composition disclosed herein is evaluated by retention of one or more of the following characteristics after the 45° C. heat treatment: clarity (transparency and translucency), homogeneousness, and cohesiveness.
as §1
Reminder for stability assessment with rheology: ΔTan δ (Tan δ 1 Hz gel with additive −Tan δ 1 Hz gel without additive)<0.1 […]
The formulation prepared in Example 3 was subjected to accelerated aging or accelerated degradation in order to test the stability of the gel. […]

[3] = after autoclaving, 0.6% (w/w) caffeic acid in HA-based gel matrix at 24 mg/g containing 5% uncrosslinked HA
[4] = before autoclaving, 0.6% (w/w) caffeic acid in HA-based gel matrix at 24 mg/g containing 5% uncrosslinked HA
[5] = after 30 days at 45° C., 0.6% (w/w) caffeic acid gel of Example 1

Question: Which results are given for `O=C(O)/C=C/c1ccc(O)c(O)c1` [Caffeic acid]?
Answer: appearance of the gel compared with before autoclaving [1, 3]: similar; ΔpH [1, 3]: 0.55; ΔTan δ (1 Hz) [1, 3]: 0.02; extrusion analysis finding ([1]; autoclaved gel with 0.6% (w/w) caffeic acid): beginning of degradation of the uncrosslinked hyaluronic acid; appearance of the gel [1, 4]: clear and brown; ΔpH [1, 4]: 0.18; ΔTan δ (1 Hz) [1, 4]: −0.003; ΔpH ([2]; 10 days at 45° C.): 1.05; ΔTan δ (1 Hz) ([2]; 10 days at 45° C.): 0.0560; ΔpH ([2]; 20 days at 45° C.): 0.90; ΔTan δ (1 Hz) ([2]; 20 days at 45° C.): 0.077; ΔpH ([2]; 30 days at 45° C.): 1.06; ΔTan δ (1 Hz) ([2]; 30 days at 45° C.): 0.144; colour of the gel [2, 5]: dark brown; physical analysis of the gel, finding [2, 5]: degradation of the formulation
